Assay results published in US8138205B2, “Heteroarylalkoxy-substituted quinolone inhibitors of PDE4” (Kalypsys, Inc., priority 2006, dated 2012).
pIC50: −log10 of the molar value.

Columns and labels:
Rabbits = experiment: Lacrimal Gland Inflammation-Induced Dry Eye in Rabbits (corneal staining, tear breakup time); type: in vivo; conditions: topical ocular BID, rabbit ConA dry eye
Text: A more detailed description of the assay used herein may be found in Naglehout, T J et al. 2005, “Preservation of Tear Film Integrity and Inhibition of Corneal Injury by Dexamethasone in a Rabbit Model of Lacrimal Gland Inflammation-Induced Dry Eye,” J. Ocular Pharm. Ther., 21:2. 139-148, the disclosure of which is hereby incorporated by reference as if written herein in its entirety.
Rabbits (n=4/group) were randomized into treatment groups and dosed topically BID with maxidex vehicle or test drug beginning one day prior to initiation of dry eye. Each rabbit received bilateral lacrimal gland injections of saline or ConA (300 μg/30 μl) and topical ocular dosing was continued BID throughout the study.
Desiccation was initiated 1-2 hours following lacrimal gland injection by placing conscious rabbits in the environmental chamber (10-15% humidity/72° F.). Following 72 consecutive hours of exposure to this dry environment, the animals were anesthetized and sutures were placed in each upper and lower eyelid and lifted to form a corneal/conjunctival cup. Methylene blue dye (1 mL, 1% in dH2O) was added to the cup for three minutes and the excess removed by washing with 200 mL BSS®. The contralateral eye was then stained using the same procedure. Rabbits were euthanized immediately following the staining procedure and the eyes were excised. The corneas were isolated with a trephine and the 9.5-mm punch of the cornea was placed in 2 mL acetone/saturated sodium sulfate (7:3, vol./vol.). Absorbance of the extracted dye was determined at 660 nm.
TBUT was quantified in a separate group of treated animals. TBUT was determined by instilling 5 μL sodium fluorescein into the cul de sac and manually blinking the lids to distribute the fluorescein within the tear film. Under slit lamp observation, the eye was held open and the time whereby one or more black spots or streaks appeared in the precorneal tear film was recorded. The rabbits were euthanized 3 days following ConA injection.

Stability Protocol = type: physicochemical; conditions: pH 7.4 sodium phosphate buffer, preliminary shelf life (T90) estimated from stressed samples
Experimental: About 3 mg of a compound was dissolved in 3 mL of acetonitrile/water mixture (50/50). 100 μL of the stock solution was added to 20 mL each of 0.025 M pH 5.0 sodium acetate buffer (A5.0), 0.025 M pH 5.0 citrate buffer (C5.0) and 0.025 M pH 7.4 sodium phosphate buffer (P7.4). A two mL aliquot of each solution was kept in a glass vial equipped a cap lined with Teflon. Two vials containing the solution were stored at 4° C. or −20° C. as control. Other aliquots were stressed at RT, 45° C. or 75° C. for specified time check points, e.g. 1 day, 1 w, 2 w, 4 w, 8 w,12 w. The stressed samples in duplicate were assayed against the control using HPLC. The results were reported in % degradation. Preliminary shelf life (T90) was estimated assuming the rate of chemical degradation is double when the temperature is up 10° C.

Solubility Protocol = type: physicochemical; conditions: aqueous buffer, thermodynamic from solid; pH 7.4, 0.1 M sodium phosphate buffer
Experimental: About 5 mg of a compound was mixed with 500 μL of pH 7.4, 0.1 M sodium phosphate buffer. The mixture was adjusted to the original pH of 7.4 and then mixed overnight or longer via rotary mixing. The sample was checked for pH and then filtered through a 0.45 μm filter. If the pH drifted away, the sample was adjusted to its original pH and mixed for at least 15 minutes before filtration. The filtrate was analyzed using HPLC.

PDE4B = target: T1, PDE4B (Homo sapiens, UniProt Q07343); experiment: PDE/AK Biological Activity Assay (coupled PDE/adenylate kinase bioluminescent assay); type: biochemical; conditions: catalytic domain of PDE4B, read-out: PDE4 Enzyme IC50
T1 construct: hex-histidine (His6) (N); made in house
T1 sequence (Q07343 330-659 limits assumed, species assumed): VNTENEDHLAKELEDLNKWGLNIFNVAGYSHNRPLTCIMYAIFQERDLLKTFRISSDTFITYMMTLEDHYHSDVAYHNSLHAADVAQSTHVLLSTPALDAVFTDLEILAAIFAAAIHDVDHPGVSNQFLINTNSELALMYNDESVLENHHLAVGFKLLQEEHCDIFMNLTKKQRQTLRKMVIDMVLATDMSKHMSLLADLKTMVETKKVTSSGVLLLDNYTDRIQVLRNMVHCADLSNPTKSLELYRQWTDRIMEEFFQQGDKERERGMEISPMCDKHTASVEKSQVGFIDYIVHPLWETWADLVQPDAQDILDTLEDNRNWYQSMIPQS
Text: Phosphodiesterases regulate the activity of the second messenger cyclic adenosine monophosphate (cAMP) by hydrolyzing cAMP to adenosine monophosphate (AMP). We developed a coupled PDE/AK bioluminescent high-throughput assay to measure the activity of phosphodiesterases. In the PDE/AK assay, the AMP produced from the hydrolysis of cAMP by phosphodiesterase is converted to adenosine diphosphate (ADP) by the phosphotransferase activity of adenylate kinase (also known as ADK or myokinase). Adenylate kinase will catalyze the conversion of 1 mole of AMP and 1 mole of ATP into 2 moles of ADP. Thus the conversion of AMP to ADP will result in the subsequent loss of ATP. The decrease in ATP concentration can be monitored as light output using luciferase in a reaction that requires ATP to produce light. The PDE/AK assay uses luciferase, which catalyzes the production of light from ATP present in the reaction mix. The amount of emitted light is inversely proportional to the level of AMP present in the reaction. Test compounds are incubated with the phosphodiesterases and phosphodiesterase inhibitors will decrease the rate of cAMP hydrolysis and decrease the subsequent production of AMP. Thus phosphodiesterase inhibitors will decrease the conversion of ATP to ADP and result in the greatest emission of light.
Compounds may be screened for functional potency in in vitro biochemical assays for their ability to inhibit the activity of phosphodiesterase (PDE) enzymes. A coupled PDE/AK assay was utilized to measure the inhibitory activity of compounds on PDE isoforms. The catalytic domain of PDE4B was fused to an amino-terminus hex-histidine affinity tag and purified. PDE4B enzyme was incubated with compounds for 10 minutes. Cyclic AMP substrate, ATP and adenylate kinase were then added to the PDE enzyme mix and incubated for 45 minutes at room temperature. A commercial ATP detection assay, Perkin Elmer's easyLite ATP detection reagent, was then added to measure the relative amount of ATP present in the reaction. After 10 minute incubation, the luminescent signal was quantitated with either the Perkin Elmer Viewlux or Molecular Devices Acquest or Analyst. Roflumilast and Rolipram are the positive controls used in the assay.

## COc1ccc2c(Nc3c(C)cncc3C)cc(=O)[nH]c2c1OCC1CC1 [Example 8, 8-(Cyclopropylmethoxy)-4-(3,5-dimethylpyridin-4-ylamino)-7-methoxyquinolin-2(1H)-one]
Rabbits; 1 × 10^−2 percent
  Activity at Percent Concentration Tested: Inactive
Rabbits; 1 × 10^−4 percent
  Activity at Percent Concentration Tested: Inactive
Rabbits; 1 × 10^−6 percent
  Activity at Percent Concentration Tested: Inactive
Stability Protocol
  Stability, pH 7.4: + (+ indicates ≧1 Year)

## COc1ccc2c(Nc3c(Cl)cncc3Cl)cc(=O)[nH]c2c1OCCCCCC(=O)O [Example 11, 6-(4-(3,5-Dichloropyridin-4-ylamino)-7-methoxy-2-oxo-1,2-dihydroquinolin-8-yloxy)hexanoic acid]
Solubility Protocol
  solubility: ≥ 1000 µg/mL
Stability Protocol
  Stability, pH 7.4: + (+ indicates ≧1 Year)

## COc1ccc2c(Nc3c(Cl)cncc3Cl)cc(=O)[nH]c2c1OCCCCCN(C)C [Example 14, 4-(3,5-Dichloropyridin-4-ylamino)-8-(5-(dimethylamino)pentyloxy)-7-methoxyquinolin-2(1H)-one]
Solubility Protocol
  solubility: ≥ 1000 µg/mL
Stability Protocol
  Stability, pH 7.4: + (+ indicates ≧1 Year)

## COc1ccc2c(Nc3c(Cl)cncc3Cl)cc(=O)[nH]c2c1OCCCCCCN1CCN(C)CC1 [Example 15, 4-(3,5-Dichloropyridin-4-ylamino)-7-methoxy-8-(6-(4-methylpiperazin-1-yl)hexyloxy)quinolin-2(1H)-one]
PDE4B
  pIC50: > 6.00
Solubility Protocol
  solubility: ≥ 1000 µg/mL
Stability Protocol
  Stability, pH 7.4: + (+ indicates ≧1 Year)

## COc1ccc2c(Nc3c(Cl)cncc3Cl)cc(=O)[nH]c2c1OCCCCCCN1CCOCC1 [Example 16, 4-(3,5-Dichloropyridin-4-ylamino)-7-methoxy-8-(6-morpholinohexyloxy)quinolin-2(1H)-one]
PDE4B
  pIC50: > 6.00
Solubility Protocol
  solubility: ≥ 1000 µg/mL
Stability Protocol
  Stability, pH 7.4: + (+ indicates ≧1 Year)

## COc1ccc2c(Nc3c(Cl)cncc3Cl)cc(=O)[nH]c2c1OCCCN1CCN(C)CC1 [Example 18, 4-(3,5-dichloropyridin-4-ylamino)-7-methoxy-8-(3-(4-methylpiperazin-1-yl)propoxy)quinolin-2(1H)-one]
PDE4B
  pIC50: > 6.00
Solubility Protocol
  solubility: ≥ 1000 µg/mL
Stability Protocol
  Stability, pH 7.4: + (+ indicates ≧1 Year)

## COc1ccc2c(Nc3c(Cl)cncc3Cl)cc(=O)[nH]c2c1OCCCN1CCOCC1 [Example 19, 4-(3,5-dichloropyridin-4-ylamino)-7-methoxy-8-(3-morpholinopropoxy)quinolin-2(1H)-one]
PDE4B
  pIC50: > 6.00
Solubility Protocol
  solubility: ≥ 1000 µg/mL
Stability Protocol
  Stability, pH 7.4: + (+ indicates ≧1 Year)

## COc1ccc2c(Nc3c(Cl)cncc3Cl)cc(=O)[nH]c2c1OCCCCCCCN1CCN(C)CC1 [Example 20, 4-(3,5-dichloropyridin-4-ylamino)-7-methoxy-8-(7-(4-methylpiperazin-1-yl)heptyloxy)quinolin-2(1H)-one]
PDE4B
  pIC50: > 6.00
Solubility Protocol
  solubility: ≥ 1000 µg/mL
Stability Protocol
  Stability, pH 7.4: + (+ indicates ≧1 Year)

## COc1ccc2c(Nc3c(Cl)cncc3Cl)cc(=O)[nH]c2c1OCCCCCCCCN1CCN(C)CC1 [Example 21, 4-(3,5-dichloropyridin-4-ylamino)-7-methoxy-8-(8-(4-methylpiperazin-1-yl)octyloxy)quinolin-2(1H)-one]
PDE4B
  pIC50: > 6.00
Solubility Protocol
  solubility: ≥ 1000 µg/mL
Stability Protocol
  Stability, pH 7.4: + (+ indicates ≧1 Year)

## COc1ccc2c(Nc3c(Cl)cncc3Cl)cc(=O)[nH]c2c1OCCCCCCN1CCNCC1 [Example 22, 4-(3,5-Dichloropyridin-4-ylamino)-7-methoxy-8-(6-(piperazin-1-yl)hexyloxy)quinolin-2(1H)-one]
PDE4B
  pIC50: > 6.00
Solubility Protocol
  solubility: ≥ 1000 µg/mL
Stability Protocol
  Stability, pH 7.4: + (+ indicates ≧1 Year)

## COc1ccc2c(Nc3c(C)cncc3C)cc(=O)[nH]c2c1OCCCCCCN1CCOCC1 [Example 35, 4-(3,5-Dimethylpyridin-4-ylamino)-7-methoxy-8-(6-morpholinohexyloxy)quinolin-2(1H)-one]
PDE4B
  pIC50: > 6.00
Solubility Protocol
  solubility: ≥ 1000 µg/mL
Stability Protocol
  Stability, pH 7.4: + (+ indicates ≧1 Year)

## COc1ccc2c(Nc3c(C)cncc3C)cc(=O)[nH]c2c1OCCCCCCN(C)C [Example 38, 8-(6-(Dimethylamino)hexyloxy)-4-(3,5-dimethylpyridin-4-ylamino)-7-methoxyquinolin-2(1H)-one]
PDE4B
  pIC50: > 6.00
Solubility Protocol
  solubility: ≥ 1000 µg/mL
Stability Protocol
  Stability, pH 7.4: + (+ indicates ≧1 Year)

## COc1ccc2c(Nc3c(Cl)cncc3Cl)cc(=O)[nH]c2c1OCCCCC(=O)O [Example 52, 5-(4-(3,5-dichloropyridin-4-ylamino)-7-methoxy-2-oxo-1,2-dihydroquinolin-8-yloxy)pentanoic acid]
PDE4B
  pIC50: > 6.00
Solubility Protocol
  solubility: ≥ 1000 µg/mL
Stability Protocol
  Stability, pH 7.4: + (+ indicates ≧1 Year)

## COc1ccc2c(Nc3c(Cl)cncc3Cl)cc(=O)[nH]c2c1OCCCCCCC(=O)O [Example 53, 7-(4-(3,5-dichloropyridin-4-ylamino)-7-methoxy-2-oxo-1,2-dihydroquinolin-8-yloxy)heptanoic acid]
PDE4B
  pIC50: > 6.00
Solubility Protocol
  solubility: ≥ 1000 µg/mL
Stability Protocol
  Stability, pH 7.4: + (+ indicates ≧1 Year)

## COc1ccc2c(Nc3c(Cl)cncc3Cl)cc(=O)[nH]c2c1OCCCCCCCC(=O)O [Example 54, 8-(4-(3,5-dichloropyridin-4-ylamino)-7-methoxy-2-oxo-1,2-dihydroquinolin-8-yloxy)octanoic acid]
PDE4B
  pIC50: > 6.00
Solubility Protocol
  solubility: ≥ 1000 µg/mL
Stability Protocol
  Stability, pH 7.4: + (+ indicates ≧1 Year)

## COc1ccc2c(Nc3c(Cl)cncc3Cl)cc(=O)[nH]c2c1OCCCC(N)=O [Example 56, 4-(4-(3,5-dichloropyridin-4-ylamino)-7-methoxy-2-oxo-1,2-dihydroquinolin-8-yloxy)butanamide]
PDE4B
  pIC50: > 6.00
Solubility Protocol
  solubility: ≥ 1000 µg/mL
Stability Protocol
  Stability, pH 7.4: + (+ indicates ≧1 Year)

## COc1ccc2c(Nc3c(Cl)cncc3Cl)cc(=O)[nH]c2c1OCCCCC(N)=O [Example 57, 5-(4-(3,5-dichloropyridin-4-ylamino)-7-methoxy-2-oxo-1,2-dihydroquinolin-8-yloxy)pentanamide]
PDE4B
  pIC50: > 6.00
Solubility Protocol
  solubility: ≥ 1000 µg/mL
Stability Protocol
  Stability, pH 7.4: + (+ indicates ≧1 Year)

## COc1ccc2c(Nc3c(Cl)cncc3Cl)cc(=O)[nH]c2c1OCCCCCC(N)=O [Example 58, 6-(4-(3,5-dichloropyridin-4-ylamino)-7-methoxy-2-oxo-1,2-dihydroquinolin-8-yloxy)hexanamide]
PDE4B
  pIC50: > 6.00
Solubility Protocol
  solubility: ≥ 1000 µg/mL
Stability Protocol
  Stability, pH 7.4: + (+ indicates ≧1 Year)
